# Reference: patent publication US20230286970A1, “NOVEL OXADIAZOLE-BASED SELECTIVE HDAC6 INHIBITORS” (ITALFARMACO S.P.A., priority 2020, published 2023)
# Tests used:
# recombinant human HDAC6 = recombinant human HDAC6 (Homo sapiens (Human), UniProt Q9UBN7); experiment: Enzymatic screening, HDAC6 inhibition (fluorogenic FdL_G substrate); type: biochemical
# Summary of the method: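 Enzyme was preincubated with compound (8 doses, triplicate, 1% DMSO) in 25 mM Tris-HCl pH 8, 130 mM NaCl, 0.05% Tween-20, 10% glycerol, with BSA. A FLUOR DE LYS-Green substrate was then added, and fluorescence was read after developer plus 2 μM TSA.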
# recombinant human HDAC1 = recombinant human HDAC1 (Homo sapiens (Human), UniProt Q13547); experiment: Enzymatic screening, HDAC1 inhibition (fluorogenic FdL_G substrate); type: biochemical
# Summary of the method: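 Recombinant human HDAC1 inhibition was measured fluorometrically using the FLUOR DE LYS-Green (FdL_G) substrate. Compounds at 8 doses (1% DMSO final) in Tris-HCl pH 8 buffer with NaCl, Tween-20 and glycerol were preincubated in triplicate with enzyme and 1 mg/mL BSA, then given substrate. Developer I plus 2 μM TSA was added, and fluorescence read after 25 minutes in the dark.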
# Stability in rat plasma = settings: after 4 hours, 37° C.
# Protocol: (§1) In order to evaluate the stability to circulating enzymes, test compounds were incubated in human and rat plasma at 37° C. in a thermostated oscillating bath. Each test compound was incubated at μM concentration (50 μM when the samples were analysed by UV/HPLC, 1 or 2 μM when the samples were analysed by LC-MS/MS) for 0, 15, 30 minutes and 1, 2 and 4 hours. The reaction was stopped placing samples on ice bath and adding acidified acetonitrile. After centrifugation (10 minutes at 14000 rpm) an aliquot of the supernatant was diluted with water, filtered with 0.45 μm regenerated cellulose syringe filters and injected in HPLC-UV or in LC-MS/MS. The percentage of the remaining amount at the various incubation times with respect to the initial amount were calculated. The half-life in plasma was also calculated.
# [1] = Stability in human plasma; settings: after 4 hours, 37° C.
# Protocol: as §1
# [2] = Stability to Phase I metabolism in rat S9 liver fraction; settings: after 90 minutes, 37° C.
# Protocol: Test compounds were incubated in rat and human liver S9 fraction at 37° C. up to 90 minutes in order to evaluate their stability to Phase I metabolism by hepatic enzymes. Each test compound was incubated at μM concentration (50 μM when the samples were analysed by UV/HPLC, 1 or 2 μM when the samples were analysed by LC-MS/MS) with S9 fraction (protein content 2 mg/m L) in 100 mM phosphate buffer (pH 7.4), 3.3 mM MgCl2 and 1.3 mM NADPH for 0, 10, 30, 60 and 90 minutes at 37° C. in a thermostated oscillating bath. The reaction was stopped placing samples on ice bath and adding acidified acetonitrile. After centrifugation (10 minutes at 14000 rpm) an aliquot of the supernatant was diluted with water, filtered with 0.45 μm regenerated cellulose syringe filters and injected in HPLC-UV or in LC-MS/MS. The percentage of the remaining amount at the various incubation times with respect to the initial amount were calculated.
# [3] = Stability to Phase I metabolism in human S9 liver fraction; settings: after 90 minutes, 37° C.
# Chain of recombinant human HDAC6 (Q9UBN7 whole entry): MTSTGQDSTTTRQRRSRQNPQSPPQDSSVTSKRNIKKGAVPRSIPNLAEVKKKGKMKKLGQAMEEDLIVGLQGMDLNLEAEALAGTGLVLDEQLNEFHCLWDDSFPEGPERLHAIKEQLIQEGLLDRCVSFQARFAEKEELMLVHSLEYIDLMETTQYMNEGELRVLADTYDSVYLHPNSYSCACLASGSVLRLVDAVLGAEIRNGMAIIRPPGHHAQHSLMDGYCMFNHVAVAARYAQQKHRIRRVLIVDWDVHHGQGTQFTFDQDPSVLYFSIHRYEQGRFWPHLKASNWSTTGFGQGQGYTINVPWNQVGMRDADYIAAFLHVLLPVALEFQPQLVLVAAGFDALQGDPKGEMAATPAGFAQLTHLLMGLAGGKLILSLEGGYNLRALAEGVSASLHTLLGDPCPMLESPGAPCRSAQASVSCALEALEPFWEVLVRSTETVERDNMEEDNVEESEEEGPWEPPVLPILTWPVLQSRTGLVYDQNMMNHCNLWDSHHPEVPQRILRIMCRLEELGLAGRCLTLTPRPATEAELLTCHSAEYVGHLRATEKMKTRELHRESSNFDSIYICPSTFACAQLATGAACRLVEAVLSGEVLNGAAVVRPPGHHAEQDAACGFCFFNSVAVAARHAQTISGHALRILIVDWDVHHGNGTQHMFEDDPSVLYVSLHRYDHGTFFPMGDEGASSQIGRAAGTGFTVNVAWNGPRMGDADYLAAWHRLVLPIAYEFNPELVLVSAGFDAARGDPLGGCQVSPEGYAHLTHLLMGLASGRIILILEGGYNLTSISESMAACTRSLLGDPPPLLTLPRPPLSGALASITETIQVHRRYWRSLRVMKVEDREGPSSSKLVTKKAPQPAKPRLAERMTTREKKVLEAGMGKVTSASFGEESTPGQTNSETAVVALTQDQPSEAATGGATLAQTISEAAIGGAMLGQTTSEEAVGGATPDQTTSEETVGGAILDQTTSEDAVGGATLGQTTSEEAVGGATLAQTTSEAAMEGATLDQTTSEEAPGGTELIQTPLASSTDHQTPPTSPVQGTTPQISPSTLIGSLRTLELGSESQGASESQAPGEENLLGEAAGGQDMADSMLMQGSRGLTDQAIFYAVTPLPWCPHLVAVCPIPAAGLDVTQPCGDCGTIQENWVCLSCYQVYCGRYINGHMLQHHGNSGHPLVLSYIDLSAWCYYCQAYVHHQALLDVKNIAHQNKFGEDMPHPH
# Chain of recombinant human HDAC1 (Q13547 whole entry): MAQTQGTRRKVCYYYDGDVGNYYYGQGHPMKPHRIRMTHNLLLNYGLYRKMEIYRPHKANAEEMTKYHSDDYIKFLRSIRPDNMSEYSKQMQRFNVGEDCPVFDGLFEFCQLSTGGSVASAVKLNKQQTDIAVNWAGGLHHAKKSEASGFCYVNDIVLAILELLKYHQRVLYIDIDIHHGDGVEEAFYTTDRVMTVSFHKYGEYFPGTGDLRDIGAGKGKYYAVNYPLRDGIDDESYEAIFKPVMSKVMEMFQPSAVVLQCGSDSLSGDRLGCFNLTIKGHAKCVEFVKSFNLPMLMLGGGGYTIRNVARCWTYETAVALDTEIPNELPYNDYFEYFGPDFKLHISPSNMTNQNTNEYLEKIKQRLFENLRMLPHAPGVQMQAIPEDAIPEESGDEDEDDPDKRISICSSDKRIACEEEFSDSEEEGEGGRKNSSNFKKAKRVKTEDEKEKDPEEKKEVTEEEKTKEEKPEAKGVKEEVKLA
SMILES,IC50 (recombinant human HDAC6),IC50 (recombinant human HDAC1),residual percentage in RAT PLASMA (Stability in rat plasma),residual percentage in HUMAN PLASMA [1],residual percentage in RAT S9 FRACTION [2],residual percentage in HUMAN S9 FRACTION [3]
"CCNC(=O)c1cccc(-c2nnn(Cc3ccc(-c4nnc(C(F)F)o4)cc3)n2)c1 [compound 91, 3-(2-(4-(5-(difluoromethyl)-1,3,4-oxadiazol-2-yl)benzyl)-2H-tetrazol-5-yl)-N-ethylbenzamide]",35 nM,> 200000 nM,93%,78%,68%,74%
"O=C1NCc2ccc(-c3cn(Cc4ccc(-c5nnc(C(F)F)o5)cc4)nn3)cc21 [compound 109, 6-(1-(4-(5-(difluoromethyl)-1,3,4-oxadiazol-2-yl)benzyl)-1H-1,2,3-triazol-4-yl)isoindolin-1-one]",42 nM,> 200000 nM,78%,89%,87%,82%
"FC(F)c1nnc(-c2ccc(Cn3nnc(-c4ccc5ccccc5n4)n3)cc2)o1 [compound 113, 2-(difluoromethyl)-5-(4-((5-(quinolin-2-yl)-2H-tetrazol-2-yl)methyl)phenyl)-1,3,4-oxadiazole]",43 nM,> 200000 nM,92%,75%,85%,76%
"CCC[C@H](c1ccc(-c2nnc(C(F)F)o2)cc1)n1cc(-c2ccc(N)nc2)nn1 [compound 143, (R)-5-(1-(1-(4-(5-(difluoromethyl)-1,3,4-oxadiazol-2-yl)phenyl)butyl)-1H-1,2,3-triazol-4-yl)pyridin-2-amine]",60 nM,> 200000 nM,80%,60%,71%,89%
"CC(c1ccc(-c2nnc(C(F)F)o2)cc1F)n1cc(-c2ccc(N)nc2)nn1 (stereo not drawn) [compound 185, 5-(1-(1-(4-(5-(difluoromethyl)-1,3,4-oxadiazol-2-yl)-2-fluorophenyl)ethyl)-1H-1,2,3-triazol-4-yl)pyridin-2-amine]",96 nM,> 200000 nM,62%,97%,69%,86%
"CC(c1ccc(-c2nnc(C(F)F)o2)cc1)n1cc(-c2ccc(N)nc2)nn1 (stereo not drawn) [Compd. 117, 5-(1-(1-(4-(5-(difluoromethyl)-1,3,4-oxadiazol-2-yl)phenyl)ethyl)-1H-1,2,3-triazol-4-yl)pyridin-2-amine]",44 nM,> 200000 nM,74%,92%,71%,93%
"CC[C@H](c1ccc(-c2nnc(C(F)F)o2)cc1)n1cc(-c2ccc(N)nc2)nn1 (stereo in doubt) [compound 194, 5-(1-(1-(4-(5-(difluoromethyl)-1,3,4-oxadiazol-2-yl)phenyl)propyl)-1H-1,2,3-triazol-4-yl)pyridin-2-amine]",104 nM,> 200000 nM,88%,90%,77%,95%
"FC(F)c1nnc(-c2ccc(Cn3nnnc3-c3csc4ccccc34)cc2)o1 [compound 288, 2-(4-((5-(benzo[b]thiophen-3-yl)-1H-tetrazol-1-yl)methyl)phenyl)-5-(difluoromethyl)-1,3,4-oxadiazole]",355 nM,> 200000 nM,86%,78%,9%,54%
"O=C(Nc1ccc(-c2nnc(Cc3ccc(-c4nnc(C(F)F)o4)cn3)s2)cn1)C(F)F [Compd. 102, N-(5-(5-((5-(5-(difluoromethyl)-1,3,4-oxadiazol-2-yl)pyridin-2-yl)methyl)-1,3,4-thiadiazol-2-yl)pyridin-2-yl)-2,2-difluoroacetamide]",39 nM,> 200000 nM,90%,92%,56%,82%

# These reach a lower IC50 (recombinant human HDAC6). Values come first.
IC50 (recombinant human HDAC6),IC50 (recombinant human HDAC1),residual percentage in RAT PLASMA (Stability in rat plasma),residual percentage in HUMAN PLASMA [1],residual percentage in RAT S9 FRACTION [2],residual percentage in HUMAN S9 FRACTION [3],SMILES
33 nM,> 200000 nM,88%,97%,46%,94%,"CN1CCC(NC(=O)c2cccc(-c3nnn(Cc4ccc(-c5nnc(C(F)F)o5)cc4)n3)c2)CC1 [compound 80, 3-(2-(4-(5-(difluoromethyl)-1,3,4-oxadiazol-2-yl)benzyl)-2H-tetrazol-5-yl)-N-(1-methylpiperidin-4-yl)benzamide]"
32 nM,> 200000 nM,76%,96%,90%,85%,"NC(=O)c1cccc(-c2nnn(Cc3ccc(-c4nnc(C(F)F)o4)cc3)n2)c1 [compound 75, 3-(2-(4-(5-(difluoromethyl)-1,3,4-oxadiazol-2-yl)benzyl)-2H-tetrazol-5-yl)benzamide]"
26 nM,32900 nM,81%,76%,94%,70%,"CCNc1nc2ccc(-c3cn(Cc4ccc(-c5nnc(C(F)F)o5)cc4)nn3)cc2[nH]1 [compd. 60, 6-(1-(4-(5-(difluoromethyl)-1,3,4-oxadiazol-2-yl)benzyl)-1H-1,2,3-triazol-4-yl)-N-ethyl-1H-benzo[d]imidazol-2-amine]"
33 nM,> 200000 nM,77%,85%,78%,96%,"Nc1ncc(-c2nnn(Cc3ccc(-c4nnc(C(F)F)o4)cc3)n2)cn1 [compound 79, 5-(2-(4-(5-(difluoromethyl)-1,3,4-oxadiazol-2-yl)benzyl)-2H-tetrazol-5-yl)pyrimidin-2-amine]"
33 nM,> 200000 nM,60%,80%,62%,85%,"Nc1ncnc2cc(-c3cn(Cc4ccc(-c5nnc(C(F)F)o5)cc4)nn3)ccc12 [compound 84, 7-(1-(4-(5-(difluoromethyl)-1,3,4-oxadiazol-2-yl)benzyl)-1H-1,2,3-triazol-4-yl)quinazolin-4-amine]"
24 nM,> 200000 nM,83%,87%,97%,98%,"CC(c1ccc(-c2nnc(C(F)F)o2)cn1)n1cc(-c2ccc(N)nc2)nn1 (stereo not drawn) [Compd. 59, 5-(1-(1-(5-(5-(difluoromethyl)-1,3,4-oxadiazol-2-yl)pyridin-2-yl)ethyl)-1H-1,2,3-triazol-4-yl)pyridin-2-amine]"
22 nM,> 200000 nM,87%,89%,66%,95%,"NC(=O)c1cccc(-c2nnn(Cc3ccc(-c4nnc(C(F)F)o4)cc3F)n2)c1 [compound 50, 3-(2-(4-(5-(difluoromethyl)-1,3,4-oxadiazol-2-yl)-2-fluorobenzyl)-2H-tetrazol-5-yl)benzamide]"
18 nM,> 200000 nM,78%,89%,79%,93%,"FC(F)c1nnc(-c2ccc(Cn3cc(-c4ccc(NC5=NCCN5)cc4)cn3)nc2)o1 [compd. 270, N-(4-(1-((5-(5-(difluoromethyl)-1,3,4-oxadiazol-2-yl)pyridin-2-yl)methyl)-1H-pyrazol-4-yl)phenyl)-4,5-dihydro-1H-imidazol-2-amine]"
17 nM,> 200000 nM,83%,90%,78%,71%,"CC(=O)Nc1cccc(-c2cn(Cc3ccc(-c4nnc(C(F)F)o4)cn3)nn2)c1 [compound 37, N-(3-(1-((5-(5-(difluoromethyl)-1,3,4-oxadiazol-2-yl)pyridin-2-yl)methyl)-1H-1,2,3-triazol-4-yl)phenyl)acetamide]"
29 nM,> 200000 nM,74%,74%,39%,77%,"Fc1cc(-c2nnc(C(F)F)o2)cc(F)c1Cn1cc(-c2cnc3cccnn23)nn1 [compound 67, 2-(3,5-difluoro-4-((4-(imidazo[1,2-b]pyridazin-3-yl)-1H-1,2,3-triazol-1-yl)methyl)phenyl)-5-(difluoromethyl)-1,3,4-oxadiazole]"
